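Five compound concentrations were applied to cells in 96-well plates for 48 hours; endpoints were derived by simple linear interpolation of the resulting dose-response curve. The concentration for 50% growth inhibition is given as GI50.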 The source made the active and inactive calls. Rule as the data show it: active = GI50 up to about 1.1 µM and inactive = higher.
What was measured:
Experiment in all cases: NCI tumour cell line growth inhibition, 48 h
M14 = tested on: M14
SN12C = tested on: SN12C
MDA-MB-231 = tested on: MDA-MB-231
U-251 = tested on: U-251
RXF 393 = tested on: RXF 393
SK-OV-3 = tested on: SK-OV-3
LOX IMVI = tested on: LOX IMVI
MOLT-4 = tested on: MOLT-4
SK-MEL-28 = tested on: SK-MEL-28
786-0 = tested on: 786-0
SW-620 = tested on: SW-620
UACC-62 = tested on: UACC-62
SNB-19 = tested on: SNB-19
HCT-116 = tested on: HCT-116
IGROV-1 = tested on: IGROV-1
DU-145 = tested on: DU-145
MDA-MB-435 = tested on: MDA-MB-435
CAKI-1 = tested on: CAKI-1
HT-29 = tested on: HT-29
BT-549 = tested on: BT-549

SMILES	GI50 (M14)	GI50 (SN12C)	GI50 (MDA-MB-231)	GI50 (U-251)	GI50 (RXF 393)	GI50 (SK-OV-3)	GI50 (LOX IMVI)	GI50 (MOLT-4)	GI50 (SK-MEL-28)	GI50 (786-0)	GI50 (SW-620)	GI50 (UACC-62)	GI50 (SNB-19)	GI50 (HCT-116)	GI50 (IGROV-1)	GI50 (DU-145)	GI50 (MDA-MB-435)	GI50 (CAKI-1)	GI50 (HT-29)	GI50 (BT-549)
O=C(O)c1cc(-c2ccc3c(O)c(O)ccc3c2)ccc1O	20.7 µM (inactive)	14.8 µM (inactive)	26.1 µM (inactive)	15 µM (inactive)	17.4 µM (inactive)	> 75 µM (inactive)	14.1 µM (inactive)	12.6 µM (inactive)	> 75 µM (inactive)	31.7 µM (inactive)	15 µM (inactive)	27 µM (inactive)	> 75 µM (inactive)	15.8 µM (inactive)	40.5 µM (inactive)	> 75 µM (inactive)	21.7 µM (inactive)	4.34 µM (inactive)	18.6 µM (inactive)	
O=c1[nH]nc(Cc2ccccc2)n1C1CC1	> 100 µM (inactive)	> 100 µM (inactive)	> 100 µM (inactive)	> 100 µM (inactive)	> 100 µM (inactive)	> 100 µM (inactive)	> 100 µM (inactive)	> 100 µM (inactive)	> 100 µM (inactive)	> 100 µM (inactive)	> 100 µM (inactive)	> 100 µM (inactive)	> 100 µM (inactive)	> 100 µM (inactive)	> 100 µM (inactive)	> 100 µM (inactive)	> 100 µM (inactive)	> 100 µM (inactive)	> 100 µM (inactive)	
O[C@@]12Cc3c([nH]c4ccccc34)[C@@H]3Oc4c(-c5ccccc5)ccc5c4[C@@]31CCN(CC1CC1)[C@@H]2C5	1.82 µM (inactive)			1.71 µM (inactive)		2.95 µM (inactive)	1.89 µM (inactive)	3.07 µM (inactive)	1.71 µM (inactive)	1.65 µM (inactive)	2.11 µM (inactive)	1.8 µM (inactive)	1.88 µM (inactive)	1.73 µM (inactive)	4.07 µM (inactive)		1.77 µM (inactive)	2.97 µM (inactive)	1.77 µM (inactive)	10.8 µM (inactive)
O=C1O/C(=C(/Cl)c2c3ccccc3cc3ccccc23)c2ccccc21	21.4 µM (inactive)	26.1 µM (inactive)	19.9 µM (inactive)	30.5 µM (inactive)	33.3 µM (inactive)	69.5 µM (inactive)	3.33 µM (inactive)	7.53 µM (inactive)	40.7 µM (inactive)	14.4 µM (inactive)	30.7 µM (inactive)	28.6 µM (inactive)	20.3 µM (inactive)	3.03 µM (inactive)	22.5 µM (inactive)	45.4 µM (inactive)	22.2 µM (inactive)	33.4 µM (inactive)	13.1 µM (inactive)	
O=c1c2cccnc2ncn1CCCN1CCCC1	> 100 µM (inactive)	> 100 µM (inactive)		> 100 µM (inactive)	> 100 µM (inactive)	> 100 µM (inactive)	> 100 µM (inactive)	> 100 µM (inactive)	> 10 µM (inactive)	> 100 µM (inactive)	> 100 µM (inactive)	> 100 µM (inactive)	> 100 µM (inactive)	> 100 µM (inactive)	> 100 µM (inactive)			> 100 µM (inactive)	> 100 µM (inactive)	
COP(C)(=O)C1=CCN(C(=O)OCC[Si](C)(C)C)CC1 (stereo not drawn)	> 100 µM (inactive)		> 100 µM (inactive)	> 100 µM (inactive)	> 100 µM (inactive)	> 100 µM (inactive)	> 100 µM (inactive)		> 100 µM (inactive)	> 100 µM (inactive)	> 100 µM (inactive)	> 100 µM (inactive)	> 100 µM (inactive)		> 100 µM (inactive)	> 100 µM (inactive)	> 100 µM (inactive)	> 100 µM (inactive)	> 100 µM (inactive)	
CON(C)C(=O)C(C)NC(=O)OC(C)(C)C (stereo not drawn)	> 100 µM (inactive)	> 100 µM (inactive)		> 100 µM (inactive)	> 100 µM (inactive)	> 100 µM (inactive)		> 100 µM (inactive)	> 100 µM (inactive)	> 100 µM (inactive)	> 100 µM (inactive)	> 100 µM (inactive)	> 100 µM (inactive)	> 100 µM (inactive)	> 100 µM (inactive)	> 100 µM (inactive)	> 100 µM (inactive)		> 100 µM (inactive)	> 100 µM (inactive)
O=c1[nH]c2nccn2c2c1SCCN2	> 100 µM (inactive)	> 100 µM (inactive)		> 100 µM (inactive)	> 100 µM (inactive)		> 100 µM (inactive)	> 100 µM (inactive)	> 100 µM (inactive)	> 100 µM (inactive)	> 100 µM (inactive)	> 100 µM (inactive)	> 100 µM (inactive)	> 100 µM (inactive)	> 100 µM (inactive)	> 100 µM (inactive)	> 100 µM (inactive)	> 100 µM (inactive)	> 100 µM (inactive)	> 100 µM (inactive)
CC1(C)CC2(C)OC(=N)C1(C#N)C2(C#N)C#N (stereo not drawn)	11.6 µM (inactive)	10.1 µM (inactive)	8.83 µM (inactive)	13.6 µM (inactive)	11.6 µM (inactive)	53.1 µM (inactive)	1.68 µM (inactive)	9.53 µM (inactive)		2.63 µM (inactive)	3.1 µM (inactive)	12.4 µM (inactive)	16.2 µM (inactive)	7.46 µM (inactive)	15 µM (inactive)	14.6 µM (inactive)	11.9 µM (inactive)	1.02 µM (active)	2.77 µM (inactive)	
COc1c(C)c2c(c(O)c1C/C=C(\C)CCC(=O)O)C(=O)OC2 [MYCOPHENOLIC ACID]	1.58 µM (inactive)	4.1 µM (inactive)	2 µM (inactive)	0.342 µM (active)	2.78 µM (inactive)	1.43 µM (inactive)	0.401 µM (active)	0.326 µM (active)	1.91 µM (inactive)	0.667 µM (active)	0.571 µM (active)	0.881 µM (active)	0.706 µM (active)	0.465 µM (active)	1.18 µM (inactive)	> 100 µM (inactive)	0.871 µM (active)	0.805 µM (active)	0.867 µM (active)	
COc1ccc(/C=c2/sc3n(c2=O)NC2(CCC(C)CC2)NN=3)cc1 (stereo not drawn)	> 100 µM (inactive)	> 100 µM (inactive)		> 100 µM (inactive)	> 100 µM (inactive)	> 100 µM (inactive)	> 100 µM (inactive)	> 100 µM (inactive)	> 100 µM (inactive)	> 100 µM (inactive)	> 100 µM (inactive)	> 100 µM (inactive)	> 100 µM (inactive)	> 100 µM (inactive)	> 100 µM (inactive)			> 100 µM (inactive)	> 100 µM (inactive)	
COC1(OC)N=C(N)C2(C#N)/C(=N/N(C)C)CC(C)C12C#N (stereo not drawn)	> 100 µM (inactive)	> 100 µM (inactive)	> 100 µM (inactive)	> 100 µM (inactive)	> 100 µM (inactive)	> 100 µM (inactive)	> 100 µM (inactive)	> 100 µM (inactive)	> 100 µM (inactive)	> 100 µM (inactive)	> 100 µM (inactive)	> 100 µM (inactive)	> 100 µM (inactive)	> 100 µM (inactive)	> 100 µM (inactive)	> 100 µM (inactive)	> 100 µM (inactive)	> 100 µM (inactive)	> 100 µM (inactive)	
COC1=CC(=O)C(O)=C(CC2(C)C(C)CCC3(C)C2CCCC3(C)C)C1=O (stereo not drawn)	2.18 µM (inactive)	3.7 µM (inactive)		2.44 µM (inactive)	2.31 µM (inactive)	18.2 µM (inactive)	4.6 µM (inactive)	2.4 µM (inactive)	4.43 µM (inactive)	3.86 µM (inactive)	4.03 µM (inactive)	2.04 µM (inactive)	3.58 µM (inactive)	5.12 µM (inactive)	5.2 µM (inactive)			3.34 µM (inactive)	10.3 µM (inactive)	
Cc1cc(C)cc(NC(=O)CCC(=O)C2CCC/C2=N\NC(=O)C(=O)NN)c1 (stereo not drawn)	> 100 µM (inactive)	> 100 µM (inactive)		> 100 µM (inactive)	> 100 µM (inactive)	> 100 µM (inactive)	> 100 µM (inactive)	> 100 µM (inactive)	> 100 µM (inactive)	> 100 µM (inactive)	> 100 µM (inactive)	> 100 µM (inactive)	> 100 µM (inactive)	> 100 µM (inactive)	> 100 µM (inactive)			> 100 µM (inactive)	> 100 µM (inactive)	
CNc1ccc([S+]([O-])Nc2ccccc2)cc1 (stereo not drawn)		> 100 µM (inactive)	46.1 µM (inactive)	36.2 µM (inactive)			41.9 µM (inactive)	52.6 µM (inactive)	> 100 µM (inactive)	53.8 µM (inactive)	70.8 µM (inactive)	23.4 µM (inactive)	> 100 µM (inactive)	40.2 µM (inactive)	41.6 µM (inactive)	> 100 µM (inactive)	34 µM (inactive)		97.7 µM (inactive)	
CC(=O)[C@]1(C)[C@H](C)O[C@](C)(CO)[C@H]1O[Si](C)(C)c1ccccc1	83 µM (inactive)	51.6 µM (inactive)	45.5 µM (inactive)	> 100 µM (inactive)	14.1 µM (inactive)	> 100 µM (inactive)	20.4 µM (inactive)	34.6 µM (inactive)	87.1 µM (inactive)	81.5 µM (inactive)	73.6 µM (inactive)	97.9 µM (inactive)	> 100 µM (inactive)	38.4 µM (inactive)	17.1 µM (inactive)	57.1 µM (inactive)	50.1 µM (inactive)	17.9 µM (inactive)	78.7 µM (inactive)	

Reference: ChEMBL document CHEMBL1201862, “PubChem BioAssay data set” (2004)
